Laboratory results reported in ChEMBL document CHEMBL1143305, “SAR and biological evaluation of analogues of a small molecule histone deacetylase inhibitor N-(2-aminophenyl)-4-((4-(pyridin-3-yl)pyrimidin-2-ylamino)methyl)benzamide (MGCD0103)” (Bioorg Med Chem Lett, 2009).
Active and inactive are the calls of the source. The rule behind the calls is not given here.

Experiments:
Histone deacetylase 1 = Histone deacetylase 1 (Homo sapiens, UniProt Q13547); test: Inhibition of human recombinant HDAC1
Sequence of Histone deacetylase 1 (Q13547 whole entry): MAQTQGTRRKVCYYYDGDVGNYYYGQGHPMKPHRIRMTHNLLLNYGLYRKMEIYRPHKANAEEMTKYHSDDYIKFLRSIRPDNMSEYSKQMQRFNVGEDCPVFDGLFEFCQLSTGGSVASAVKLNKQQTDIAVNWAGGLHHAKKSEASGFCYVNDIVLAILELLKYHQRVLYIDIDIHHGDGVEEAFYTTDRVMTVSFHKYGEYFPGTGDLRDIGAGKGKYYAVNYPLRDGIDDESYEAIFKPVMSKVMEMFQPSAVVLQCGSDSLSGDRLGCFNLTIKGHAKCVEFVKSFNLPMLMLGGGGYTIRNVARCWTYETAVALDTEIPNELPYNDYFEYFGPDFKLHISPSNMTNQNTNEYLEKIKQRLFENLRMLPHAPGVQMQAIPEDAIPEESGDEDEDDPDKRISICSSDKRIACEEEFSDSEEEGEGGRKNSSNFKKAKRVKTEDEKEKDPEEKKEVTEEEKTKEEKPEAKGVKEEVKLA

HCT-116 [1] = test: cells; settings: Homo sapiens
Description: (§1) Antiproliferative activity against human HCT116 cells by MTT assay

HCT-116 [2] = test: Induction of p21WAF1/CIP1 expression in human HCT116 cells assessed as […] after 16 hrs by luciferase assay; type: functional, cell-based; settings: for EC50: HCT-116, 16 h
HMEC [3] = test: Antiproliferative activity against HMEC by MTT assay; type: cell-based; settings: Homo sapiens
T-24 = test: Induction of histone H4 hyperacetylation in human T24 cells after 16 hrs by immunoblotting; type: functional, cell-based; settings: for EC50: T-24, 16 h
HMEC [4] = test: Selectivity ratio of IC50 for HMEC to IC50 for human HCT116 cells
HCT-116 [5] = test: Induction of apoptosis in human HCT116 cells; type: functional, cell-based
HCT-116 [6] = settings: Homo sapiens
Description: as §1

| IC50 (Histone deacetylase 1) [nM] | IC50 (HCT-116 [1]) [nM] | EC50 (HCT-116 [2]) [nM] | EC50 (T-24) [nM] | SMILES | IC50 (HMEC [3]) [nM] | Ratio IC50 (HMEC [4]) | Activity (HCT-116 [5]) | Activity (HCT-116 [2]) | Activity (T-24) | Activity (HCT-116 [6]) |
| --- | --- | --- | --- | --- | --- | --- | --- | --- | --- | --- |
| 80 | 100 | 100 | < 1000 | Nc1ccccc1NC(=O)c1ccc(CNc2nccc(-c3ccc(OCCN4CCOCC4)cc3)n2)cc1 | 8000 | >30 |  |  |  |  |
| 230 | 100 | 600 | 2000 | CC(C)(O)c1ccc(-c2ccnc(NCc3ccc(C(=O)Nc4ccccc4N)cc3)n2)cn1 | 38000 | >20 | Active |  |  |  |
| 250 | 100 | 600 | 1000 | CSc1nc(NCc2ccc(C(=O)Nc3ccccc3N)cc2)cc(-c2cccnc2)n1 | 13000 |  |  |  |  |  |
| 160 | 400 | 700 | 1000 | N#Cc1ccc(-c2ccnc(NCc3ccc(C(=O)Nc4ccccc4N)cc3)n2)cn1 | > 50000 | >20 | Active |  |  |  |
| 420 | 300 | 900 | 2000 | CN(C)C(=O)c1ccc(-c2ccnc(NCc3ccc(C(=O)Nc4ccccc4N)cc3)n2)cn1 | > 50000 | >20 | Active |  |  |  |
| > 20000 | 43000 |  |  | Nc1ccccc1NC(=O)c1cccc(CNc2nccc(-c3cccnc3)n2)c1 |  |  |  |  |  |  |
| 90 | 100 | 500 | 1000 | Nc1ccccc1NC(=O)c1ccc(CNc2nccc(-c3ccc(CN4CCOCC4)cc3)n2)cc1 | 27000 | >30 |  |  |  |  |
| 90 | 300 | 600 | < 1000 | Nc1ccccc1NC(=O)c1ccc(CNc2cccc(-c3cccnc3)c2)cc1 | 5000 | >15 | Active |  |  |  |
| 120 | 90 | 100 | < 1000 | CN(C)CCOc1ccc(-c2ccnc(NCc3ccc(C(=O)Nc4ccccc4N)cc3)n2)cc1 | 10000 | >30 |  |  |  |  |

The remaining lines, values behind:

| SMILES | IC50 (Histone deacetylase 1) [nM] | IC50 (HCT-116 [1]) [nM] | EC50 (HCT-116 [2]) [nM] | EC50 (T-24) [nM] | IC50 (HMEC [3]) [nM] | Ratio IC50 (HMEC [4]) | Activity (HCT-116 [5]) | Activity (HCT-116 [2]) | Activity (T-24) | Activity (HCT-116 [6]) |
| --- | --- | --- | --- | --- | --- | --- | --- | --- | --- | --- |
| Nc1ccccc1C(=O)Nc1ccc(CNc2nccc(-c3cccnc3)n2)cc1 | > 20000 | 25000 |  |  |  |  |  |  |  |  |
| Nc1ccccc1NC(=O)c1ccc(CNc2cccc(-c3cccnc3)n2)cc1 | 180 | 600 | 600 | 1000 | > 50000 |  | Active |  |  |  |
| CN(C)CCOc1cccc(-c2ccnc(NCc3ccc(C(=O)Nc4ccccc4N)cc3)n2)c1 | 130 | 300 |  | < 1000 | 11000 | >30 |  | inactive |  |  |
| Nc1ccccc1NC(=O)c1ccc(CNc2nccc(-c3cnccn3)n2)cc1 | 190 | 300 | 600 | 1000 | 23000 | >30 |  |  |  |  |
| Nc1ccccc1NC(=O)c1ccc(CNc2ccnc(-c3cccnc3)n2)cc1 | 200 | 400 | 600 | < 1000 | 11000 |  | Active |  |  |  |
| CN1CCN(c2ccc(-c3ccnc(NCc4ccc(C(=O)Nc5ccccc5N)cc4)n3)cn2)CC1 | 80 | 200 | 200 |  | 5000 | >20 | Active |  | inactive |  |
| Nc1ccccc1NC(=O)c1ccc(/C=C/CNc2nccc(-c3cccnc3)n2)cc1 | 130 |  |  |  |  |  |  |  |  |  |
| Nc1cc(-c2cccnc2)nc(NCc2ccc(C(=O)Nc3ccccc3N)cc2)n1 | 170 | 200 | 200 | 1000 | 14000 |  |  |  |  |  |
| Nc1ccccc1NC(=O)c1ccc(CNc2cc(-c3cccnc3)ncn2)cc1 | 70 | < 50 | 500 | < 1000 | 42000 | >15 | Active |  |  |  |
| Nc1ccccc1NC(=O)c1ccc(CNc2nccc(-c3ccc(N4CCOCC4)nc3)n2)cc1 | 50 | < 50 | 400 | < 1000 | 5000 | >20 | Active |  |  |  |
| CSc1ccc(-c2ccnc(NCc3ccc(C(=O)Nc4ccccc4N)cc3)n2)cn1 | 90 | 300 | 300 | 1000 | 6000 | >20 | Active |  |  |  |
| COCOC(C)(C)c1ccc(-c2ccnc(NCc3ccc(C(=O)Nc4ccccc4N)cc3)n2)cn1 | 250 | 100 | 1000 | 1000 | 49000 | >20 | Active |  |  |  |
| Nc1ccccc1NC(=O)c1ccc(CNc2nccc(-c3nccs3)n2)cc1 | 140 |  | 500 | < 1000 | 14000 | >30 |  |  |  | inactive |
| Nc1ccccc1NC(=O)c1ccc(CNc2nccc(-c3cccnc3)n2)cc1 [MOCETINOSTAT] |  | 300 | 600 | < 1000 | 21000 |  |  |  |  |  |
| Nc1ccccc1NC(=O)c1ccc(CNc2cncc(-c3cccnc3)n2)cc1 | 110 | 300 | 400 | 1000 | 16000 | >15 | Active |  |  |  |
| Nc1ccccc1NC(=O)c1ccc(CNc2nccc(-c3ccsc3)n2)cc1 | 70 | 70 | 300 | 3000 | 7000 | >30 |  |  |  |  |
| Nc1ccccc1NC(=O)c1ccc(CNc2nccc(-c3cc(CO)no3)n2)cc1 | 210 | 800 |  | 1000 | > 50000 | >30 |  | inactive |  |  |
| O=C(Nc1ccccc1)c1ccc(CNc2nccc(-c3cccnc3)n2)cc1 | > 25000 | > 50000 |  |  |  |  |  |  |  |  |
| Nc1ccccc1NC(=O)c1ccc(Nc2nccc(-c3cccnc3)n2)cc1 | 2000 | 2000 |  |  |  |  |  |  |  |  |
| Nc1ccccc1NC(=O)c1ccc(CNc2nccc(-c3cccc(OCCN4CCOCC4)c3)n2)cc1 | 140 | 300 | 400 | 1000 | 41000 | >30 |  |  |  |  |
| Nc1ccccc1NC(=O)/C=C/c1ccc(CNc2nccc(-c3cccnc3)n2)cc1 | 1200 | 2000 |  |  |  |  |  |  |  |  |
| Nc1ccccc1NC(=O)c1ccc(CNc2nccc(-c3ccc(C(=O)N4CCOCC4)nc3)n2)cc1 | 250 | 1000 | 2000 |  | 37000 | >20 | Active |  | inactive |  |
